According to patent US12188095B2, “Methods and compositions for identifying and treating patients with small cell lung cancer” (UNIVERSITY OF UTAH RESEARCH FOUNDATION, priority 2016, dated 2025):

Legend:
human cell lines = assay: Human cell line viability with BCL2 inhibitors (CellTiter-Glo, GI50); type: cell-based; details: 96 h
Experimental: Human cell lines were seeded in triplicate in white, flat-bottomed 96-well plates at 2000 cells/well. […] Drug was added again at 48 h to maintain the desired final concentration. After 96 h of treatment, cell viability was measured using Cell Titer Glo (CTG) assay (Promega, Madison, Wis., USA) and plates were read on a luminometer. Normalized, transformed dose response curves were generated and analyzed using GraphPad Prism (GraphPad, La Jolla, Calif., USA) to determine GI50 for each compound (see, FIG. 13). Error bars represent mean+/−SEM.

human SCLC cell lines = assay: Drug screening of human SCLC cell lines (CellTiter-Glo viability, GI50); type: cell-based; details: 17 human SCLC cell lines, 72-96 hr; adjusted p: etoposide 0.038, alisertib 0.001, barasertib 0.022
Experimental: Drug screening. Human SCLC cell lines were cultured in RPMI or HITES as described before (Sos et al., 2012). […] After 96 hr, cell viability was analyzed using CTG reagent. […] For PF-670462 (Apexbio), MS436 (MedChem Express), barasertib/1152-HQPA (Apexbio), alisertib/MLN8237 (Apexbio) and milciclib/PHA-848125 (MedChem Express), all dissolved in DMSO, indicated cell lines were screened using the same protocol in 384-well format with 500 (adherent) or 5000 (suspension) cells per well (25 ml) and treated using a robotic system (CyBio CyBi well vario). Upon treatment, cells were incubated for 72 hr prior to addition of CTG reagent. Each cell line and concentration was analyzed in quadruplicate per experiment with n=3 independent trials.

[1] = system: RPM mouse SCLC cell lines; assay: Mouse cell viability and proliferation assays (CellTiter-Glo, GI50); type: cell-based; details: 96 hrs; for GI50: RPM cell lines (n=7)
Experimental: Mouse cell viability and proliferation assays. Cells were seeded in triplicate (1500/well) in white, flat-bottom 96-well plates. […] After 96 hrs of treatment, cell viability was measured using Cell Titer Glo (CTG, Promega, Madison, Wis., USA) on a luminometer. Normalized, transformed dose response curves were generated and analyzed using GraphPad Prism (GraphPad, La Jolla, Calif., USA) to determine GI50 for each compound. […] Confluence percentage at each time point was calculated by the Essen IncuCyte software.

AURKA = assay: Immunoblot of Aurora kinase inhibition in treated cells; type: cell-based; details: concentrations in the range of the GI50-value, mouse and human cells
AURKB = target: T1, AURKB (Homo sapiens, UniProt Q96GD4); assay: as above; type: cell-based; details: concentrations in the range of the GI50-value, mouse and human cells
T1 construct: Whole cell lysates analyzed by immunoblot for indicated antibodies; endogenous in cells; host or cells: GLC2 (human SCLC)
Experimental: Immunoblot. For primary lung tumor lysates, mouse lung tumors were micro-dissected under sterile conditions, flash frozen and stored at −80° C. until use. Approximately 20-40 mg tumor pieces were disrupted and lysed to homogeneity with disposable pestles and cordless motor (VWR) in 200 μl RIPA buffer supplemented with protease inhibitors (Roche complete mini) and sodium orthovanadate (Sigma). Lysates are centrifuged at 13000 rpm for 15 minutes and supernatants are transferred to new tubes. For cell line lysates, total protein lysates are prepared as previously described, separated via SDS-PAGE and transferred to a PVDF membrane (Oliver et al., 2011). Membranes were blocked for 1 hr in 5% milk or 5% BSA, followed by overnight incubation with primary antibodies at 4° C. Membranes were washed for 6×5 min at room temperature in TBS-T. Mouse and rabbit HRP-conjugated secondary antibodies (Jackson ImmunoResearch, 1:10,000) were incubated for 1 hr at room temperature followed by washing 6×5 min at room temperature in TBS-T. For detection, membranes were exposed to WesternBright HRP Quantum substrate (Advansta) and detected on Hyblot CL film (Denville Scientific Inc). […]

RPM cells = assay: Cell cycle analysis (PI staining, flow cytometry); type: cell-based, mouse; details: 48 hr
Experimental: Cell cycle analysis. Cells were treated with indicated concentrations of alisertib (MLN8237, Selleckchem, Houston, Tex.) in 6-well plates and harvested with trypsin, washed twice in PBS, and 1×10^6 cells were fixed in ice-cold 70% ethanol overnight. Cells were washed 2× in PBS/1% BSA, treated with 100 μg/mL RNase for 10 min at 37° C., then stained with 25 μg/mL propidium iodide (PI) overnight at 4 C. Cells were analyzed on a BD FACScan flow cytometer and cell cycle analysis excluding cell doublets was performed using FlowJo software.

MYC = MYC protein level and stability (immunoblot, cycloheximide); type: cell-based; details: mouse or human cells, also after cycloheximide block of protein synthesis
Experimental: Alternatively, cell lysates were prepared using RIPA buffer supplemented with protease inhibitors (Roche complete mini) and benzonase (Millipore)), separated on 4-20% Tris-glycine SDS-PAGE gels (Invitrogen), and transferred to PVDF-FL membrane (Millipore). Membranes were blocked using Li-Cor blocking buffer (1:10 in TBS) and incubated with primary antibodies in blocking solution with 0.2% Tween 20 overnight at 4° C. Prior to detection with a near-IR imaging system (Li-Cor Odyssey), membranes were washed in TBS-T, incubated with secondary antibodies and washed in TBS-T. For total Aurora A in FIG. 6H, the chemiluminescent signal (ECL, GE Healthcare) was captured with a CCD-camera (BioRad Geldoc XR+). […]
Protein stability cycloheximide (CHX) experiments. […] Protein lysates were prepared using RIPA buffer as described above, separated on 4-20% Tris-glycine gels (Invitrogen), and analyzed by immunoblot against Myc and Hsp90. Signals were quantified using Li-Cor Image Studio (Li-Cor Biosciences) and ratios of Myc/Hsp90 normalized to the 0 min time point. […]

[2] = system: RPM mice with Myc-driven SCLC; assay: In vivo drug study in RPM mice (microCT tumor volume, survival); parameters: species or system mouse
Experimental: Alisertib (MLN8237, ApexBio, dissolved in 10% 2-hydroxy-beta-cyclo-dextrin and 1% sodium bicarbonate) was given 20 mg/kg twice daily by oral gavage on a schedule of 5 days on, 2 days off. […] For survival studies, endpoints include but are not limited to: difficulty breathing, eating or moving, obvious signs of pain or weight loss greater than 20% of initial body weight.
Mice were scanned for 34 sec under isoflurane anesthesia using a small animal Quantum FX microCT (PerkinElmer) at 45 μm resolution, 90 kV with 160 μA current. Images were acquired using PerkinElmer Quantum FX software and processed with Analyze 11.0 (AnalyzeDirect).
Scans were calibrated for Hounsfield Units (HU) by determining the mean value of “Bed” and “Air” for representative scans through the region of interest (ROI) tool and matching those values to their known HU (40 HU and −1000 HU, respectively) using the “Image Algebra” tool. Every image was then applied a 3×3×3 Median Filter from the “Spatial Filters” window. Thresholds of “Air” vs. “Dense Tissue” were established using the ROI and histogram tools. Every image was processed and normalized using the “Image Algebra” tool, followed by a 3×3×3 Median Filter from the “Spatial Filters” window. For Total Tumor Burden Analyses, the object map was created using the previously established thresholds; adjustments were made manually using “Spline Edit”, “Draw” and “Nudge Edit” tools. The object map was then morphed using the “Morphology” tool. The object map was made binary by using the threshold morphing tool. Then, the map was dilated 3 times using 5×5×5 Jack-shaped structuring elements. The holes were then filled on every 2D-orientation. The map was finally brought back to its original size using the “Erode” tool 3 times using 5×5×5 Jack-shaped structuring elements. The volumetric analyses were then performed in the ROI window using the pre-established thresholds and non-airspace was calculated using the formula: Non-airspace=1−(VolAir/ROIVol). For individual tumors, the 3D segmentation was performed semiautomatically using Analyze 11.0 “object extract tool”. Adjustments were made manually using the “Spline Edit”, “Draw” and “Nudge Edit” tools. The tumor segmentation was then processed using the semi-automatic tools “fill holes” and the object was propagated and smoothed in the axial, transverse and coronal planes. Volume quantification was obtained using the ROI tool as for total tumor burden analyses.
Total tumor volume was quantified relative to total air volume as a comprehensive measurement of treatment impact. […] The percent change in total tumor volume was analyzed at Day 19 (or at the time of death, if sooner) compared to Day 0 in each treatment group by waterfall plot.

RPM tumors = assay: IHC and histology of tumors of treated RPM mice; type: in vivo, mouse
Experimental: Sections were dewaxed, rehydrated and subjected to high temperature antigen retrieval, 20 min boiling in a pressure cooker in 0.01 M citrate buffer, pH 6.0. Slides were blocked in 3% H202 for 15 min, blocked in 5% goat serum in PBS/0.1% Tween-20 (PBS-T) for 1 hr, and stained overnight in blocking buffer with primary antibodies. A HRP conjugated secondary antibody (Vector Laboratories) was used at 1:200 dilution in PBS-T, incubated for 45 min at room temperature, followed by DAB staining (Vector Laboratories). All staining was performed with Sequenza coverplate technology. Mouse on Mouse (M.O.M.) Basic Kit (Vector Laboratories) was used for staining with BrdU and Ki67 mouse primary antibodies. Tris buffered saline with Tween-20 (TBS-T) was used instead of PBS-T for phospho-protein antibodies. […]
For automated image analysis, IHC-stained slides were digitally scanned with the Aperio AT2 Scanscope and whole slides images were quantitatively analyzed with image analysis nuclear algorithm using Halo digital imaging analysis software (Indica Labs, NM, USA). […] Results are expressed as percent positive cells per tumor area.

[3] = system: human SCLC cell lines infected with Bcl-2 vector; assay: Viability of human SCLC cell lines overexpressing BCL2; type: cell-based; details: human SCLC cell lines with pMSCV PIG Bcl-2 vs empty vector
Experimental: HEK293T cells were transfected with pMSCV PIG (Addgene Plasmid #21654) empty vector, or pMSCV PIG with an insert that encodes the human Bcl-2 gene in addition to pCMV-VSVG and pCMV delta R8.2 plasmids using TransIT-LT1 (Minis). Virus was collected at 48 and 72 hr post-transfection. Human SCLC cell lines were infected with viral supernatant. Infected cells were selected with puromycin for several days until all uninfected cells were killed by puromycin. […] Cell viability assays were carried out as previously described, with the addition of Alisertib+/−0.5 uM ABT-199 (ApexBio) using the infected human cell lines described above. Cell viability assays were carried out as previously described, with the addition of Alisertib+/−0.5 uM ABT-199 (ApexBio) using the infected human cell lines described above.

[4] = system: MYC-high vs. MYC-low human SCLC cell lines; details: 68 human SCLC cell lines binned by MYC expression, data of Polley et al., 2016; cited from earlier work
relapsed SCLC = details: monotherapy, relapsed SCLC (Melichar et al., 2015); cited from earlier work

T1 sequence (Q96GD4 whole entry): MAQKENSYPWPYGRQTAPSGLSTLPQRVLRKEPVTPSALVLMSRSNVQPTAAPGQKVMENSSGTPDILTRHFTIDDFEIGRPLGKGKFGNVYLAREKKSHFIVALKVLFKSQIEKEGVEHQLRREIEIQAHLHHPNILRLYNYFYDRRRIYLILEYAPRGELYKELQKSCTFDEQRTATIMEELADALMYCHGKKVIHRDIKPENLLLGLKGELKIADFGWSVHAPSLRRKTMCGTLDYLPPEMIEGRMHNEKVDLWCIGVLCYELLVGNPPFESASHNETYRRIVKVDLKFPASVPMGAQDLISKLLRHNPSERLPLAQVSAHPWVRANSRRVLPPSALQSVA

CC1(C)CCC(CN2CCN(c3ccc(C(=O)NS(=O)(=O)c4ccc(NCC5CCOCC5)c([N+](=O)[O-])c4)c(Oc4cnc5[nH]ccc5c4)c3)CC2)=C(c2ccc(Cl)cc2)C1 [ABT-199]
sensitivity (GI50) to BCL2 inhibition relative to MYC expression (human cell lines): MYC expression anti-correlates with BCL2 expression and sensitivity to BCL2 inhibition

CN(C)CC[C@H](CSc1ccccc1)Nc1ccc(S(=O)(=O)NC(=O)c2ccc(N3CCN(Cc4ccccc4-c4ccc(Cl)cc4)CC3)cc2)cc1[N+](=O)[O-] [ABT-737]
sensitivity (GI50) to BCL2 inhibition relative to MYC expression (human cell lines): MYC expression anti-correlates with BCL2 expression and sensitivity to BCL2 inhibition

COc1cc(Nc2ncc3c(n2)-c2ccc(Cl)cc2C(c2c(F)cccc2OC)=NC3)ccc1C(=O)O [alisertib]
drug response (GI50) of MYC-driven SCLCs versus those driven by MYCL or MYCN (human SCLC cell lines): significantly more responsive
sensitivity of RPM cells compared to adenocarcinoma cell lines and non-MYC-driven cells (GI50) ([1]; RPM vs RPP, RP, KP cell lines): particularly sensitive
inhibition of AURKA (AURKA): dose-dependent inhibition
inhibition of AURKB (AURKB): dose-dependent inhibition
subG1 cells (RPM cells; RPM cells compared to KP, RPP and RP cells): greater increase in subG1 cells
G2/M phase cells (RPM cells; RPM cells): dose-dependent increase in G2/M phase cells
MYC protein level (MYC): did not primarily lead to reduced MYC protein
increase of median survival compared to untreated animals ([2]; Day 0 = start of treatment): 10 days
mice that survived 30 days ([2]; PBS 0%): 8%
tumor growth (total tumor volume by microCT) ([2]; three cycles, alisertib 20 mg/kg twice daily 5 days on 2 off, cisplatin 5 mg/kg + etoposide 10 mg/kg once weekly): modest delay in tumor growth
overall response (percent change in total tumor volume Day 0-19) compared to untreated animals ([2]; waterfall plot): did not impact overall response
cells with polyploidy and aberrant mitoses (RPM tumors; alisertib 20 mg/kg twice daily): dramatic enrichment
NEUROD1+ cells by IHC (RPM tumors; compared to other treatment groups): significantly enriched
Alisertib sensitivity on BCL2 overexpression [3]: BCL2 overexpression promotes Alisertib resistance
efficacy (IC50) in MYC-high versus MYC-low cell lines [4]: increased efficacy in MYC-high cell lines
patients exhibiting partial responses (relapsed SCLC): ~20%

N.N.[Cl][Pt][Cl] [cisplatin]
GI50 [1]: high micromolar

COc1cc([C@@H]2c3cc4c(cc3[C@@H](O[C@@H]3O[C@@H]5CO[C@@H](C)O[C@H]5[C@H](O)[C@H]3O)[C@H]3COC(=O)[C@H]23)OCO4)cc(OC)c1O [etoposide]
GI50 [1]: nanomolar
